From patent publication US20240317777A1, “NOVEL MACROCYCLIC AMINOPYRAZOLE COMPOUNDS AS CDK2 INHIBITORS” (Accutar Biotechnology Inc., priority 2023, published 2024)
Read-outs that look alike come from different tables or passages of the source.

What was measured:
[1] = target: CDK4-CYCLIN D1 (Homo sapiens, UniProt P11802); assay: CDK protein kinase inhibition by ADP-Glo assay, CDK4-CYCLIN D1; format: biochemical; settings: for IC50: ADP-Glo, 1000 μM ATP, read-out: CDK4-CYCLIND1, IC50; for CDK2 Fold Sensitivity, CDK4 / CDK2 Fold selectivity, CDK4: CDK2 versus CDK4; for CDK2 Fold Sensitivity, CDK4: Table 8
Method: (§1) CDK Protein Kinase Inhibition by ADP-Glo Assay
(§2) This ADP-Glo assay measures ADP formed from a kinase reaction and indirectly quantifies the phosphorylation of peptide substrates by the CDK/cyclin protein complexes. The typical assays were carried out in Nanosyn by combining kinase/cyclin complexes, substrates, compounds, and cofactors (ATP and Mg2+) in a well of a 384-well microtiter plate (Corning 3824) and incubating at 22° C. (Table 1). At the end of the incubation, the reaction is quenched, and conversion is detected by luminescence using the Promega ADP-Glo™ Kinase Assay kit (catalog #V9102).
(§3) Final assay buffer mixture contains: • 100 mM HEPES, pH 7.5 • 0.1% BSA • 0.01% Triton X-100 • 1 mM DTT • 5 mM MgCl2 • 10 μM Sodium Orthovanadate • 100 μM Beta-Glycerophosphate • 1000 μM Ultra Pure ATP (provided in the Promega ADP-Glo™ Kinase Assay kit) • 1% DMSO (from compound)
(§4) Upon completion, 5 μL of the ADP Glo reagent was added to each well and the plate was further incubated at room temperature for 45 minutes. 10 uL of the Kinase Detection Reagent was subsequently added to each well. After 10 minutes of incubation, the plate was read and analyzed on the BioTek Synergy microplate reader using BioTek Gen5 software.

[2] = target: CDK2-CYCLIN E1 (Homo sapiens, UniProt P24941); assay: CDK protein kinase inhibition by ADP-Glo assay, CDK2-CYCLIN E1; format: biochemical; settings: ADP-Glo, 1000 μM ATP, read-out: CDK2-CYCLINE, IC50
Method: as §1, §2, §3, §4

[3] = target: CDK9-CYCLIN T1 (Homo sapiens, UniProt P50750); assay: CDK protein kinase inhibition by ADP-Glo assay, CDK9-CYCLIN T1; format: biochemical; settings: for IC50: ADP-Glo, 1000 μM ATP, read-out: CDK9-CYCLINT1, IC50; for CDK2 Fold Sensitivity, CDK9 / CDK2 Fold selectivity, CDK9: CDK2 versus CDK9; for CDK2 Fold Sensitivity, CDK9: Table 8
Method: as §1, §2, §3, §4

[4] = target: CDK6-CYCLIN D3 (Homo sapiens, UniProt Q00534); assay: CDK protein kinase inhibition by ADP-Glo assay, CDK6-CYCLIN D3; format: biochemical; settings: for IC50: ADP-Glo, 1000 μM ATP, read-out: CDK6-CYCLIND3, IC50; for CDK2 Fold Sensitivity, CDK6 / CDK2 Fold selectivity, CDK6: CDK2 versus CDK6; for CDK2 Fold Sensitivity, CDK6: Table 8
Method: as §1, §2, §3, §4

[5] = system: Phospho-Rb (Ser807/811) in OVCAR3 cells; assay: Phospho-Rb expression inhibition in OVCAR3 cells quantified by In Cell Western; format: cell-based; settings: Homo sapiens, OVCAR-3, 24 hours, read-out: OVCAR-3 pRb IC50
Outline: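 In-cell western: after 24 h compound exposure at 37° C, fixed OVCAR3 cells co-stained for pRb Ser807/811 (800 nm channel) and total Rb (680 nm channel), imaged by LI-COR Odyssey.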

[6] = system: CCNE1-amplified OVCAR3 cells; assay: Cell growth inhibition of CCNE1-amplified OVCAR3 cells (CellTiter-Glo); format: cell-based; settings: Homo sapiens, OVCAR-3, 144 h, 6 days
Outline: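 Growth read-out was CellTiter-Glo luminescence, taken after 10 min at room temperature at the end of a 6-day compound exposure at 37 °C. Compounds were diluted from DMSO stocks across various concentrations.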

[7] = target: CDK1-CYCLIN B (Homo sapiens, UniProt P06493); assay: CDK protein kinase inhibition by ADP-Glo assay, CDK1-CYCLIN B; format: biochemical; settings: for IC50: ADP-Glo, 1000 μM ATP, read-out: CDK1-CYCLINB, IC50; for CDK2 fold selectivity over CDK1 / CDK2 Fold selectivity, CDK1: CDK2 versus CDK1; for CDK2 fold selectivity over CDK1: Table 8
Method: as §1, §2, §3, §4

[8] = system: CCNE1-normal SKOV3 cells; assay: Cell growth inhibition of CCNE1-normal SKOV3 cells (CellTiter-Glo); format: cell-based; settings: Homo sapiens, SK-OV-3, 144 h, 6 days
Outline: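 Growth was measured by CellTiter-Glo luminescence after 6 days' compound exposure at 37 °C. Cells were plated one day before dosing at 1000 per well in medium with 10% FBS, and compounds were diluted from DMSO stocks.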

Sequence of CDK4-CYCLIN D1 (P11802 whole entry): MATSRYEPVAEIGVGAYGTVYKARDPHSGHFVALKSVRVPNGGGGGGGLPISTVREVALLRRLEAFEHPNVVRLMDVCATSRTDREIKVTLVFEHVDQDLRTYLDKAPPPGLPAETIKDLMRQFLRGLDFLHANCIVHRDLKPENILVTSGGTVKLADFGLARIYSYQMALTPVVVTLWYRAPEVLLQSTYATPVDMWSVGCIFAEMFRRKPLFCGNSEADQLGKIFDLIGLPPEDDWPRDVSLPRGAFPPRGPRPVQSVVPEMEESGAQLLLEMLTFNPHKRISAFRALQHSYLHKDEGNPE
Sequence of CDK4-CYCLIN D1 (P24385 whole entry partner): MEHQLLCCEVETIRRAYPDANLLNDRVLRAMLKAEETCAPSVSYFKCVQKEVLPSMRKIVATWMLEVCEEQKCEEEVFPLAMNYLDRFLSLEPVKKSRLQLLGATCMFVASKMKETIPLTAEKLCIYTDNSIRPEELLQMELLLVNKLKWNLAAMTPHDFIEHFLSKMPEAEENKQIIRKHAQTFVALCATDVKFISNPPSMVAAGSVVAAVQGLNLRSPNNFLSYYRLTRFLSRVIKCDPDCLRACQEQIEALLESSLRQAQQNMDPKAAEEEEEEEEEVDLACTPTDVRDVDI
Sequence of CDK6-CYCLIN D3 (Q00534 whole entry): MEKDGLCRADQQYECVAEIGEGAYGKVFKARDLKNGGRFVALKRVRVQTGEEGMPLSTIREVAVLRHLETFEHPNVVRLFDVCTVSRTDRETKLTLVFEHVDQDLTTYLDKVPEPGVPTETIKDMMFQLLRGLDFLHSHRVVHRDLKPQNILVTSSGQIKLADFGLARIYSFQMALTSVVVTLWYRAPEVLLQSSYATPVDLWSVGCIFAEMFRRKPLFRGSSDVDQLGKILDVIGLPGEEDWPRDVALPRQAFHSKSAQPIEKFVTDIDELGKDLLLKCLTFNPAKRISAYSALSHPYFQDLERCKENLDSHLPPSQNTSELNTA
Sequence of CDK6-CYCLIN D3 (P30281 whole entry partner): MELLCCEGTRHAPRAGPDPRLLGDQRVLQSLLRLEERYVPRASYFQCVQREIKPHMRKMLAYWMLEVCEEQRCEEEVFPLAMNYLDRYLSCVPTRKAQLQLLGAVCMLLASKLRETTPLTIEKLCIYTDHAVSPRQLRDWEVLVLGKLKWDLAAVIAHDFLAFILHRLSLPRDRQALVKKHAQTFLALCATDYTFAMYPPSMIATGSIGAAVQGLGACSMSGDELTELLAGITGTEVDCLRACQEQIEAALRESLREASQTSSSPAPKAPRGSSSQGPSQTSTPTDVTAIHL
Sequence of CDK9-CYCLIN T1 (P50750 whole entry): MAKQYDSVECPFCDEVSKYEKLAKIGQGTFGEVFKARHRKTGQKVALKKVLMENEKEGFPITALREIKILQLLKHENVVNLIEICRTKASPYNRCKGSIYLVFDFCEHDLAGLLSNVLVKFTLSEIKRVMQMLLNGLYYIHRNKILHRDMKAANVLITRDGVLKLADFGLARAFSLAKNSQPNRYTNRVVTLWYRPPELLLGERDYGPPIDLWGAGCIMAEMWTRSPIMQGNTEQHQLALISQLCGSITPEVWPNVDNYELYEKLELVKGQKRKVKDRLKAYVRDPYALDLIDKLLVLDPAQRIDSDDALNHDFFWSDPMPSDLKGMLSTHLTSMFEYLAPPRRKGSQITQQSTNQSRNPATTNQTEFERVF
Sequence of CDK9-CYCLIN T1 (O60563 whole entry partner): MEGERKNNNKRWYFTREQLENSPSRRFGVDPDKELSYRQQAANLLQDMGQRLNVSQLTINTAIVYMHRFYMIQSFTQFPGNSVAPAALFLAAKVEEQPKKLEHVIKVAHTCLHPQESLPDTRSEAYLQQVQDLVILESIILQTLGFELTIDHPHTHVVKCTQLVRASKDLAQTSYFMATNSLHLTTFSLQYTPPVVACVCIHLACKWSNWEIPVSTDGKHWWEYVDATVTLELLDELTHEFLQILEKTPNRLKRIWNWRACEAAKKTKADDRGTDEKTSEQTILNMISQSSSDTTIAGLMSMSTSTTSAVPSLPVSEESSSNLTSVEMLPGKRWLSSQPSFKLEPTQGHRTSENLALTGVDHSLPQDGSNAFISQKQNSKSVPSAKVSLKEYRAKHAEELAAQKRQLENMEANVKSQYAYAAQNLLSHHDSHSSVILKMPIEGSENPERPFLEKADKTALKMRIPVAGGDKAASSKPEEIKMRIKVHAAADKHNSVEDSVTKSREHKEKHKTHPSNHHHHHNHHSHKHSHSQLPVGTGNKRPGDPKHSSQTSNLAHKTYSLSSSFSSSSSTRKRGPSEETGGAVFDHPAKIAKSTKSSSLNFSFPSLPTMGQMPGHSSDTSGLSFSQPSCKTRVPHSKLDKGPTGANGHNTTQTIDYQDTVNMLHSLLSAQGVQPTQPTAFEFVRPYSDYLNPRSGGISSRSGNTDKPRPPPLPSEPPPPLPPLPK
Sequence of CDK1-CYCLIN B (P06493 whole entry): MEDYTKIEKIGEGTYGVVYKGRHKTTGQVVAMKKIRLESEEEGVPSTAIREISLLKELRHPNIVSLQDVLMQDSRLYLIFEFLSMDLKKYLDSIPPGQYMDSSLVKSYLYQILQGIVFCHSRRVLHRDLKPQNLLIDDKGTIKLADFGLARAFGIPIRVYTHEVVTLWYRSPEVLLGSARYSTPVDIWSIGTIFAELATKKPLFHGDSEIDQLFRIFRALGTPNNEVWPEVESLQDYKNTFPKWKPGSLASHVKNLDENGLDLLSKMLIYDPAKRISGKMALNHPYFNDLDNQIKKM
Sequence of CDK1-CYCLIN B (P14635 whole entry partner): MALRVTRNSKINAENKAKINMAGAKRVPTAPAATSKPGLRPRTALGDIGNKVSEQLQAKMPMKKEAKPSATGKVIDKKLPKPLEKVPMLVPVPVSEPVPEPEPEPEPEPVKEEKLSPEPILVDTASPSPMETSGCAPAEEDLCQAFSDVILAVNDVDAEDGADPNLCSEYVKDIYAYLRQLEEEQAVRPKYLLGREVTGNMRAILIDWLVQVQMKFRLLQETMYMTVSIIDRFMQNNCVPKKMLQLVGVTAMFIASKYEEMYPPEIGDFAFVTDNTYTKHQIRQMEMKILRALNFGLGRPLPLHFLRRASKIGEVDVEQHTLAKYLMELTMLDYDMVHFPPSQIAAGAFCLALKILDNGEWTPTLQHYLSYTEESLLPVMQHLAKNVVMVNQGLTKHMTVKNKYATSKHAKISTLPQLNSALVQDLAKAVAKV

## C[C@H]1CCCOc2cc(ccn2)Nc2cc([nH]n2)[C@H]2CC[C@H](C2)OC(=O)N1 [Compound 9, (1^1S,1^3R,9S,Z)-9-methyl-2^1H-5,12-dioxa-3,10-diaza-4(4,2)-pyridina-2(3,5)-pyrazola-1(1,3)-cyclopentanacyclododecaphan-11-one]
[1]; Table 7
  IC50: > 500 nM
[1]; Table 29
  IC50: > 500 nM
[1]
  CDK2 Fold Sensitivity, CDK4: B (B, >100 and ≤500)
[1]; Table 30
  CDK2 Fold selectivity, CDK4: C (C, >50 and ≤100)
[2]; Table 7
  IC50: ≤ 10 nM
[2]; Table 29
  IC50: 10 to 50 nM
[3]; Table 7
  IC50: > 500 nM
[3]; Table 29
  IC50: > 500 nM
[3]
  CDK2 Fold Sensitivity, CDK9: B (B, >100 and ≤500)
[3]; Table 30
  CDK2 Fold selectivity, CDK9: C (C, >50 and ≤100)
[4]; Table 7
  IC50: > 500 nM
[4]; Table 29
  IC50: > 500 nM
[4]
  CDK2 Fold Sensitivity, CDK6: B (B, >100 and ≤500)
[4]; Table 30
  CDK2 Fold selectivity, CDK6: C (C, >50 and ≤100)
[5]
  IC50: 10 to 50 nM
[6]
  IC50: 10 to 50 nM
[7]; Table 7
  IC50: 100 to 500 nM
[7]; Table 29
  IC50: 100 to 500 nM
[7]
  CDK2 fold selectivity over CDK1: C (C, >50 and ≤100)
[7]; Table 30
  CDK2 Fold selectivity, CDK1: E (E, <20)
[8]
  IC50: > 1250 nM

## C[C@@H]1CCCOc2cc(ccn2)Nc2cc([nH]n2)[C@H]2CC[C@H](C2)OC(=O)N1 [Compound 10, (1^1S,1^3R,9R,Z)-9-methyl-2^1H-5,12-dioxa-3,10-diaza-4(4,2)-pyridina-2(3,5)-pyrazola-1(1,3)-cyclopentanacyclododecaphan-11-one]
[1]; Table 7
  IC50: 100 to 500 nM
[1]
  CDK2 Fold Sensitivity, CDK4: C (C, >50 and ≤100)
[2]; Table 7
  IC50: ≤ 10 nM
[3]; Table 7
  IC50: > 500 nM
[3]
  CDK2 Fold Sensitivity, CDK9: B (B, >100 and ≤500)
[4]; Table 7
  IC50: 100 to 500 nM
[4]
  CDK2 Fold Sensitivity, CDK6: C (C, >50 and ≤100)
[5]
  IC50: 10 to 50 nM
[6]
  IC50: 50 to 250 nM
[7]; Table 7
  IC50: 100 to 500 nM
[7]
  CDK2 fold selectivity over CDK1: D (D, >20 and ≤50)
[8]
  IC50: > 1250 nM

## CC1(C)CCCOc2cc(ccn2)Nc2cc([nH]n2)[C@H]2CC[C@H](C2)OC(=O)N1 [Compound 13, (1^1S,1^3R,Z)-9,9-dimethyl-2^1H-5,12-dioxa-3,10-diaza-4(4,2)-pyridina-2(3,5)-pyrazola-1(1,3)-cyclopentanacyclododecaphan-11-one]
[1]; Table 7
  IC50: 50 to 100 nM
[1]
  CDK2 Fold Sensitivity, CDK4: C (C, >50 and ≤100)
[2]; Table 7
  IC50: ≤ 10 nM
[3]; Table 7
  IC50: 50 to 100 nM
[3]
  CDK2 Fold Sensitivity, CDK9: C (C, >50 and ≤100)
[4]; Table 7
  IC50: 50 to 100 nM
[4]
  CDK2 Fold Sensitivity, CDK6: D (D, >20 and ≤50)
[5]
  IC50: 2 to 10 nM
[6]
  IC50: 2 to 10 nM
[7]; Table 7
  IC50: 10 to 50 nM
[7]
  CDK2 fold selectivity over CDK1: E (E, <20)
[8]
  IC50: 250 to 1250 nM

## O=C1NCCCCOc2cc(cc(C(F)F)n2)Nc2cc([nH]n2)[C@H]2CC[C@H](C2)O1 [Compound 16, (1^1S,1^3R,Z)-46-(difluoromethyl)-2^1H-5,12-dioxa-3,10-diaza-4(4,2)-pyridina-2(5,3)-pyrazola-1(1,3)-cyclopentanacyclododecaphan-11-one]
[1]; Table 7
  IC50: > 500 nM
[1]
  CDK2 Fold Sensitivity, CDK4: B (B, >100 and ≤500)
[2]; Table 7
  IC50: ≤ 10 nM
[3]; Table 7
  IC50: > 500 nM
[3]
  CDK2 Fold Sensitivity, CDK9: B (B, >100 and ≤500)
[4]; Table 7
  IC50: > 500 nM
[4]
  CDK2 Fold Sensitivity, CDK6: B (B, >100 and ≤500)
[5]
  IC50: 10 to 50 nM
[6]
  IC50: 10 to 50 nM
[7]; Table 7
  IC50: 50 to 100 nM
[7]
  CDK2 fold selectivity over CDK1: E (E, <20)
[8]
  IC50: > 1250 nM

## O=C1NCCCCCc2cc(cc(C(F)F)n2)Nc2cc([nH]n2)[C@H]2CC[C@H](C2)O1 [Compound 17, (1^1S,1^3R,Z)-4^6-(difluoromethyl)-2^1H-12-oxa-3,10-diaza-4(4,2)-pyridina-2(3,5)-pyrazola-1(1,3)-cyclopentanacyclododecaphan-11-one]
[1]; Table 7
  IC50: 100 to 500 nM
[1]
  CDK2 Fold Sensitivity, CDK4: B (B, >100 and ≤500)
[2]; Table 7
  IC50: ≤ 10 nM
[3]; Table 7
  IC50: 50 to 100 nM
[3]
  CDK2 Fold Sensitivity, CDK9: C (C, >50 and ≤100)
[4]; Table 7
  IC50: 50 to 100 nM
[4]
  CDK2 Fold Sensitivity, CDK6: B (B, >100 and ≤500)
[5]
  IC50: 2 to 10 nM
[6]
  IC50: 2 to 10 nM
[7]; Table 7
  IC50: ≤ 10 nM
[7]
  CDK2 fold selectivity over CDK1: E (E, <20)
[8]
  IC50: 250 to 1250 nM

## O=C1NC23CC(COc4cc(cc(C(F)F)n4)Nc4cc([nH]n4)[C@H]4CC[C@H](C4)O1)(C2)C3 [Compound 19, (1^1S,1^3R,Z)-46-(difluoromethyl)-2^1H-5,10-dioxa-3,8-diaza-4(4,2)-pyridina-2(3,5)-pyrazola-7(1,3)-bicyclo[1.1.1]pentana-1(1,3)-cyclopentanacyclodecaphan-9-one]
[1]; Table 11
  IC50: > 500 nM
[1]; Table 12
  CDK2 Fold selectivity, CDK4: A (A, ≥500)
[2]; Table 11
  IC50: ≤ 10 nM
[3]; Table 11
  IC50: > 500 nM
[3]; Table 12
  CDK2 Fold selectivity, CDK9: A (A, ≥500)
[4]; Table 11
  IC50: > 500 nM
[4]; Table 12
  CDK2 Fold selectivity, CDK6: B (B, >100 and ≤500)
[5]
  IC50: 2 to 10 nM
[6]
  IC50: 10 to 50 nM
[7]; Table 11
  IC50: 50 to 100 nM
[7]; Table 12
  CDK2 Fold selectivity, CDK1: D (D, >20 and ≤50)
[8]
  IC50: > 1250 nM
